Results reported in US12343344B2 (NOVARTIS AG, priority 2019, dated 2025).
Values after ≈ are worked out from the molar mass of the structure shown.

What was measured:
[1] = system: KYSE-520 (esophageal squamous cell carcinoma); assay: antiproliferation in KYSE-520 cells; assay type: cell-based; details: Homo sapiens
[2] = system: Cyclin D1, phospho-RB in HCC827 cells; assay: immunoblot of signalling proteins in HCC827 cells; assay type: cell-based; details: HCC827, 48 hours treatment, TNO155 together with ribociclib (FIG. 2)
Protocol: HCC827 cells were plated in 6-well plates at a density of 2×10^5 cells/well in 2 ml of complete culture medium. […] 48 hours after the treatment, cells were harvested in freshly prepared RIPA cell lysis buffer supplemented with Protease and Phosphatase Inhibitor Cocktail. Proteins extracted from cell lysates were separated by electrophoresis using a NuPAGE 4-12% Bis-Tis gel and were transferred to nitrocellulose membranes, followed by standard immunobloting procedures. The primary antibodies used were all from Cell Signaling Technology with the following catalog numbers: phospho-RB (S807/811, #8516), Cyclin D1 (#2978), cleaved PARP (#9546), phospho-ERK (T202/Y204, #4370), phospho-RSK3 (T356/S360, #9348), phospho-AKT (S473, #4060) and Tubulin (#3873). The signals were visualized by simantanous incubation with goat anti-rabbit secondary antibodies conjugated with Alexa Fluor® 700 and the goat anti-mouse secondary antibody conjugated with IRDye 800 CW for Tubulin (protein loading control) and scanning with an Odyssey Infrared Imager System.

[3] = system: phosphorylated ERK1/2 (pERK); assay: in vitro pERK inhibition in DETROIT-562 cells; assay type: cell-based; details: Homo sapiens
Source text: (§1) SHP2 inhibition can be measured by assessing biomarkers within the MAPK signaling pathway, such as decreased levels of phosphorylated ERK1/2 (pERK) and downregulation of dual specificity phosphatase 6 (DUSP6) mRNA transcript.

[4] = system: tumor DUSP6 biomarker; assay: dose fractionation studies with tumor DUSP6 biomarker; assay type: in vivo; details: attained for at least 80% of the dosing interval
Source text: as §1

[5] = system: DETROIT-562 (pharyngeal squamous cell carcinoma); assay: antiproliferation in DETROIT-562 cells; assay type: cell-based; details: Homo sapiens
[6] = tolerability in rats; assay type: in vivo
[7] = system: pRb-positive cell lines derived from diverse cancer types; assay: pRb phosphorylation and cell cycle in pRb-positive cell lines; assay type: cell-based; details: more than 40 pRb-positive cell lines
[8] = system: lineage-matched pRb-negative cell lines; assay: cell cycle progression in pRb-negative cell lines; assay type: cell-based
[9] = system: tumor xenograft models; assay: in vivo anti-tumor activity in tumor xenograft models; details: subsets of xenograft models incl. breast, melanoma, neuroblastoma, malignant rhabdoid, lung, pancreas, hematological malignancies
[10] = tolerability in mice; assay type: in vivo
[11] = up to 28 days, up to 150 mg/kg once daily orally
[12] = up to 28 days, up to 250 mg/kg once daily orally

Row | SMILES | IC50 [1] | ribociclib-induced cyclin D1 accumulation [2] | IC50 [3] | PD inhibition at which maximal efficacy is achieved [4] | IC50 [5] | myelosuppression ([6]; correlated with pRb inhibition) | body weight loss [6, 11] | tolerability [6, 11] | G1 to S phase cell cycle progression [7] | Retinoblastoma protein (pRb) phosphorylation [7] | effect on cell cycle progression [8] | in vivo anti-tumor activity [9] | myelosuppression ([10]; correlated with pRb inhibition) | body weight loss [10, 12] | tolerability [10, 12]
1 | C[C@@H]1OCC2(CCN(c3cnc(Sc4ccnc(N)c4Cl)c(N)n3)CC2)[C@@H]1N [TNO155, (3S,4S)-8-(6-amino-5-((2-amino-3-chloropyridin-4-yl)thio)pyrazin-2-yl)-3-methyl-2-oxa-8-azaspiro[4.5]decan-4-amine] | 0.0422 µg/mL (≈ 0.1 µM) | prevention of ribociclib-induced cyclin D1 accumulation | 0.0148 µg/mL (≈ 0.0351 µM) | 50% | 0.198 µg/mL (≈ 0.47 µM) | – | – | – | – | – | – | – | – | – | –
2 | CN(C)C(=O)c1cc2cnc(Nc3ccc(N4CCNCC4)cn3)nc2n1C1CCCC1 [ribociclib, 7-cyclopentyl-N,N-dimethyl-2-((5-(piperazin-1-yl)pyridin-2-yl)amino)-7H-pyrrolo[2,3-d]pyrimidine-6-carboxamide] | – | – | – | – | – | myelosuppression was observed | ≤ 12.5% | well-tolerated | interfered | inhibited | no effect | demonstrated in vivo anti-tumor activity | myelosuppression was observed | ≤ 12.5% | well-tolerated
